Source: patent publication US20120009152A1, “NITRIC OXIDE DONORS FOR TREATMENT OF DISEASE AND INJURY” (priority 2002, published 2012)

Key:
[1] = system: cerebral vessels in the ischemic boundary regions; experiment: Angiogenesis in ischemic brain after embolic MCA occlusion (vascular perimeters, BrdU endothelial cells, three dimensional vessel analysis); type: in vivo, rat
Procedure: Male Wistar rats weighing 320-380 gm were employed. The middle cerebral artery (MCA) was occluded by placement of an embolus at the origin of the MCA.
(§1) DETANONOate (0.4 mg/kg) was intravenously administered to rats (n=8) 24 hours after stroke and daily (i.p) for an additional 6 consecutive days. Ischemic rats (n=8) treated with the same volume of decayed DETANONOate were used as a control group. All rats were sacrificed 14 days after stroke. 2) To examine the effect of exogenous NO on brain levels of VEGF, DETANONOate (0.4 mg/kg) or saline was administered to ischemic rats (n=3 for each group) with the identical paradigm described in Protocol 1. These rats were sacrificed 7 days after stroke. […] Rats were sacrificed 14 days after stroke.
Bromodeoxyuridine (BrdU, Sigma Chemical), the thymidine analog that is incorporated into the DNA of dividing cells during S-phase, was used for mitotic labeling. BrdU (50 mg/kg) was […] (i.p) daily for 13 consecutive days into ischemic rats starting 1 day after MCA occlusion.
To examine neovascularization in ischemic brain, fluorescein isothiocyanate (FITC) dextran (2×10^6 molecular weight, Sigma, St. Louis, Mo.; 0.1 ml of 50 mg/ml) was administered intravenously to the ischemic rats subjected to 14 days of MCAo. Ti brains were rapidly removed from the severed heads and placed in 4% of paraformaldehyde at 4° C. for 48 hours. Coronal sections (100 μm) were cut on a vibratome. The vibratome sections were analyzed with a Bio-Rad MRC 1024 (argon and krypton) laser-scanning confocal imaging system mounted onto a Zeiss microscope (Bio-Rad; Cambridge, Mass.), as previously described. Seven 100 μm thick vibratome coronal sections at 2 mm intervals from bregma 5.2 mm to bregma −8.8 mm from each animal injected with FITC-dextran were selected. Eight brain regions in the ipsilateral and contralateral hemispheres were selected within a reference coronal section (interaural 8.8 mm, bregma 0.8 mm). These regions were scanned in 512×512 pixel (276×276 μm^2) format in the x-y direction using a 4× frame-scan average and twenty-five optical sections along the z-axis with a 1 μm step-size were acquired under a 40× objective. Vascular branch points, segment lengths and diameters were measured in three dimensions using software developed in the laboratory. Image acquisition and analysis were performed blindly.
For BrdU immunostaining, DNA was first denatured by incubating brain sections (6 μm) in 50% formamide 2×SSC at 65° C. for 2 hours and then in 2N HCl at 37° C. for 30 minutes. Sections were then rinsed with tris buffer and treated with 1% of H2O2 to block endogenous peroxidase. Sections were incubated with a mouse monoclonal antibody (mAb) against BrdU (1:1000, Boehringer Mannheim, Indianapolis, Ind. overnight and incubated with biotinylated secondary antibody (1:200, Vector, Burlingame, Calif.) for 1 hour.
To quantify BrdU immunoreactive endothelial cells, numbers of endothelial cells and numbers of BrdU immunoreactive endothelial cells in ten enlarged vessels adjacent to the ischemic lesion were counted from each rat. Numbers of endothelial cells and BrdU immunoreactive endothelial cells in the ten vessels of the contralateral homologous area were also counted. Data are presented as percentage of BrdU immunoreactive endothelial cells to total endothelial cells in ten enlarged vessels from each rat.
Vascular perimeters were measured on coronal sections immunostained with an anti-von Willebrand factor antibody as previously described.

[2] = system: rat VEGF; experiment: ELISA for VEGF in ischemic boundary regions; type: in vivo; details: control 13.4±1.5
Procedure: as §1
The ischemic boundary regions and homologous tissue in the contralateral hemisphere were dissected. The tissue was homogenized and centrifuged at 10,000 g for 20 min at 4° C. and the supernatant was collected. ELISA for VEGF in the supernatants was performed using a commercially available kit specific for rat VEGF (R&D, systems) according to the manufacture's instruction.

[3] = system: Mouse brain-derived endothelial cells; experiment: Capillary-like tube formation assay; type: cell-based
Procedure: An in vitro angiogenesis assay was performed. Briefly, 0.8 ml of growth factor reduced Matrigel (Becton Dickinson) was added to pre-chilled 35 mm culture dishes and allowed to polymerize at 37° C. for 2 to 5 hours. […] For quantitative measurements of capillary tube formation, three random areas of Matrigel dishes were imaged and the length of continuous cords of three or more cells was measured.

[4] = system: rats subjected to middle cerebral artery occlusion (MCAo); experiment: Volume of cerebral infarction after MCAo, combination study; type: in vivo, rat; details: treatment 1 day after MCAo; NN 0.4 mg/kg IP, hMSCs 1×10^6 cells iv; no significant reduction vs PBS
Procedure: (§2) Male Wistar rats (n=32) were subjected to middle cerebral artery occlusion (MCAo) and were randomized with 8 rats in four treatment groups, with treatment initiated 1 day after stroke. Groups included: 1) phosphate buffered saline (PBS); 2) subtherapeutic DETA-NONOate (NN) at a dose of 0.4 mg/kg (IP); 3) subtherapeutic hMSCs (1×10^6 cells-iv); and 4) combination subtherapeutic NN and hMSCs. Functional outcome measurements consisted of a Neurologic Severity Scale (18 point scale) (NSS) and the Adhesive Removal Test performed prior to stroke, immediately before treatment and at 7 and 14 days after treatment. […] However, there was an overall hMSC effect on NSS at 14 days.
No significant reduction of volume of ischemic damage was detected in rats with hMSC (30.7±6.2%) or NONOate ([…]) and combination hMSCs with NONOate (28.7±6.7%) treatment, compared with control rats subjected to MCAo with PBS ([…]), hMSCs were identified immunohistochemically using an antibody specific for human chromosomes (MAB1281). Within the brain tissue, cells derived from hMSCs were characterized by MAB1281 staining. No MAB1281 positive cells were found in the non-hMSCs treated rats. MSCs identified by MAB1281 survived and were distributed throughout the damaged brain of recipient rats. […] The vast majority of MAB1281 positive hMSCs were located in the ischemic boundary zone.

[5] = system: BrdU positive cells in the subventricular zone; experiment: BrdU positive cells in ipsilateral subventricular zone, combination study; type: in vivo, rat; details: treatment 1 day after MCAo; NN 0.4 mg/kg IP, hMSCs 1×10^6 cells iv; PBS control 29.8±8.8
Procedure: as §2
BrdU (50 mg/kg-ip) was injected daily for 14 days after treatment in all groups. BrdU is a thymidine analog that labels newly formed DNA and thereby identifies newly formed cells. […] BrdU found in the cytoplasm of macrophage-like cells were not counted. […] The percentage of BrdU reactive cells that express NeuN and GFAP proteins was approximately, 3%, 3% and 6%, respectively.

[6] = system: rat VEGF; experiment: Sandwich ELISA of VEGF secretion from endogenous cells after MCAo; type: in vivo; details: vs MCAo control group
Procedure: as §2
To obtain insight into the mechanisms associated with the induction of angiogenesis and neurogenesis, the fact that combination therapy induces the expression of neurotrophic and growth factors in brain was tested. Data are presented on the levels of vascular endothelial growth factor (VEGF) in brain after treatment with MSCs.

[7] = DETANONOate 0.4 mg/kg, three dimensional analysis

SMILES | vessel enlargement in the contralateral hemisphere ([1]; DETANONOate 0.4 mg/kg from 24 h after stroke for 7 days, 14 days after stroke) | vascular perimeters around the ischemic lesion ([1]; DETANONOate 0.4 mg/kg from 24 h after stroke for 7 days, 14 days after stroke, vs decayed DETANONOate control) | numbers of proliferated (BrdU immunoreactive) endothelial cells ([1]; DETANONOate 0.4 mg/kg from 24 h after stroke for 7 days, vs control) | capillary segment diameters [1, 7] | capillary segment lengths [1, 7] | numbers of capillary segments in the boundary regions of ischemia ([1]; DETANONOate 0.4 mg/kg, three dimensional analysis, vs decayed DETANONOate) | VEGF levels in the ischemic boundary regions ([2]; DETANONOate 0.4 mg/kg from 24 h after stroke, 7 days after stroke, n=3) [pg/mL] | capillary-like tube formation ([3]; DETANONOate 0.2 μM, 3 hours, vs DMEM only) | volume of ischemic damage [4] [%] | BrdU positive cells in the ipsilateral hemisphere subventricular zone [5] | VEGF secretion from endogenous cells (rat VEGF) [6] | angiogenesis in ischemic brain ([1]; Sildenafil 2 mg/kg fed from 24 h after stroke, daily 7 days, 14 days after stroke) | VEGF levels in the ischemic boundary ([2]; Sildenafil treated ischemic rats, n=3 per group) [pg/mL] | capillary-like tube formation ([3]; Sildenafil 100 to 500 nM)
NCCN(CCN)/[N+]([O-])=N/O [DETANONOate, (Z)-1-[N-(2-aminoethyl)-N-(2-ammonioethyl)aminio]diazen-1-ium-1,2-diolate] | did not enlarge vessels in the contralateral hemisphere | significantly (P<0.01) enlarged vascular perimeters | significantly (p<0.05) increased | significantly smaller diameters | shorter segment lengths | significantly (p<0.05) increased the numbers of capillary segments | 28.9 ± 1.0 | significant increase in capillary-like tube formation | 32.2±62 | 43.6±10.0 /section | did not show a significant increase | – | – | –
CCCc1nn(C)c2c(=O)[nH]c(-c3cc(S(=O)(=O)N4CCN(C)CC4)ccc3OCC)nc12 [Sildenafil] | – | – | – | – | – | – | – | – | – | – | – | significant increase of angiogenesis | 34.4 ± 2.9 | concentration-dependent capillary-like tube formation
